Test results: US20260265246A1 (ICAHN SCHOOL OF MEDICINE AT MOUNT SINAI, priority 2021, published 2026)
Like-named read-outs stand apart in the source and are kept apart here.

Experiments:
5HT2A receptor [1] = target: T1, 5HT2A receptor (Homo sapiens, UniProt P28223); test: cell-based; set-up: expressed in transfected cells; host or cells: HEK293T cells, transient co-transfection; conditions: for Emax: HEK-293T
5HT2A receptor [2] = target: T1, 5HT2A receptor; test: biochemical; assay type: binding; set-up: expressed in transfected cells; crude membranes
5HT2A receptor [3] = target: T1, 5HT2A receptor; test: cell-based; set-up: expressed in transfected cells; host or cells: HEK293T cells, transient co-transfection; conditions: for Emax: HEK-293T; remark: listed apart in the source
[4] = 5HTA Gq EC50 (nM), BRET2 Gαq dissociation, HEK293T
[5] = BRET2 Gαq dissociation, HEK293T, normalized to 5-HT, read-out: 5HTA Gq Emax (%)
[6] = 5HT2A Ki (nM), secondary binding assay, Cheng-Prusoff
[7] = 5HT2A β-Arr EC50 (nM), BRET1 beta-arrestin2 recruitment, HEK293T
[8] = BRET1 beta-arrestin2 recruitment, HEK293T, normalized to 5-HT, read-out: 5HT2A β-Arr Emax (%)
[9] = BRET2 Gαq dissociation, HEK293T, read-out: 5HTA Gq EC50
[10] = secondary binding assay, Cheng-Prusoff, read-out: 5HT2A Ki
[11] = BRET2 Gαq dissociation, HEK293T cells, read-out: 5HT2A Gq EC50
[12] = BRET2 Gαq dissociation, HEK293T cells, normalized to 5-HT, read-out: 5HT2A Gq Emax (%)
[13] = secondary radioligand binding, Ki from IC50 by Cheng-Prusoff, read-out: 5HT2A Ki
[14] = BRET1 beta-arrestin2 recruitment, HEK293T cells, read-out: 5HT2A β-Arr EC50
[15] = BRET1 beta-arrestin2 recruitment, HEK293T cells, normalized to 5-HT, read-out: 5HT2A β-Arr Emax (%)
[16] = 5HT2A Gq EC50 (nM), BRET2 Gαq dissociation, HEK293T cells
[17] = 5HT2A Ki (nM), secondary radioligand binding, Ki from IC50 by Cheng-Prusoff
[18] = 5HT2A β-Arr EC50 (nM), BRET1 beta-arrestin2 recruitment, HEK293T cells
[19] = read-out: 5HTA Gq Emax (%), BRET2 Gαq dissociation, HEK293T, normalized to 5-HT
[20] = read-out: 5HT2A β-Arr Emax (%), BRET1 beta-arrestin2 recruitment, HEK293T, normalized to 5-HT
[21] = BRET1 beta-arrestin2 recruitment, HEK293T, read-out: 5HT2A β-Arr EC50

T1 sequence (P28223 whole entry): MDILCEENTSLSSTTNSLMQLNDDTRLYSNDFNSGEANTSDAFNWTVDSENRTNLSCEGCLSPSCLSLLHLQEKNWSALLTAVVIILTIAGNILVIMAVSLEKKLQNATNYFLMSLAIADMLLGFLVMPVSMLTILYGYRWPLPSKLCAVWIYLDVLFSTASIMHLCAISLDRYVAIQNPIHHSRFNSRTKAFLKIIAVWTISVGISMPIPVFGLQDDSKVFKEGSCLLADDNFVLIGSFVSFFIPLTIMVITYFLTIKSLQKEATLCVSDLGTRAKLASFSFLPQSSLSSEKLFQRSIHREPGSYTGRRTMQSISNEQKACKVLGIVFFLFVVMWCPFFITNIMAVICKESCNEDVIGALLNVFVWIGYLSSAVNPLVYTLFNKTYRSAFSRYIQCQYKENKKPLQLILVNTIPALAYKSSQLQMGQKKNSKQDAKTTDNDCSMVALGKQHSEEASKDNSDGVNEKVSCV

SMILES	EC50 (5HT2A receptor [1]; [4]) [nM]	Emax (5HT2A receptor [1]; [5]) [%]	Ki (5HT2A receptor [2]; [6]) [nM]	EC50 (5HT2A receptor [3]; [7]) [nM]	Emax (5HT2A receptor [3]; [8]) [%]	Emax (5HT2A receptor [1]; [12]) [%]	Emax (5HT2A receptor [3]; [15]) [%]	Ki (5HT2A receptor [2]; [17]) [nM]	EC50 (5HT2A receptor [3]; [18]) [nM]	further results
Clc1cccc2c(-c3cncnc3)n[nH]c12 [Example 216, 7-chloro-3-(pyrimidin-5-yl)-1H-indazole]	27.5	85.1	4390	729	53.8	–	–	–	–	–
CN1CC=C(c2c[nH]c3c(Cl)cccc23)C1 [Example 210, 7-chloro-3-(1-methyl-2,5-dihydro-1H-pyrrol-3-yl)-1H-indole]	–	74.9	–	119	33.6	–	–	–	–	EC50 (5HT2A receptor [1]; [9]): 33.1 nM; Ki (5HT2A receptor [2]; [10]): 86.1 nM
Fc1ccc2[nH]nc(C3=CCCNC3)c2c1 [Example 85, 5-fluoro-3-(1,2,5,6-tetrahydropyridin-3-yl)-1H-indazole]	–	–	–	–	–	88.3	96	–	–	EC50 (5HT2A receptor [1]; [11]): 2.8 nM; Ki (5HT2A receptor [2]; [13]): 33.4 nM; EC50 (5HT2A receptor [3]; [14]): 68.6 nM
Cc1cccc2c(C3=CCCNC3)c[nH]c12 [Example 41, 7-methyl-3-(1,2,5,6-tetrahydropyridin-3-yl)-1H-indole]	–	–	–	–	–	92.6	83.2	1380	1410	EC50 (5HT2A receptor [1]; [16]): 234 nM
CN1CCC=C(c2c[nH]c3nccc(F)c23)C1 [Example 117, 4-fluoro-3-(1-methyl-1,2,5,6-tetrahydropyridin-3-yl)-1H-pyrrolo[2,3-b]pyridine]	–	–	–	–	–	110	51.1	1360	865	EC50 (5HT2A receptor [1]; [16]): 253 nM
Cc1cccc2c(N3CCNCC3)n[nH]c12 [Example 230, 7-methyl-3-(piperazin-1-yl)-1H-indazole]	248	66.1	715	917	45.3	–	–	–	–	–
CCc1cccc2c(C3=CCCNC3)n[nH]c12 [Example 121, 7-ethyl-3-(1,2,5,6-tetrahydropyridin-3-yl)-1H-indazole]	–	–	–	–	–	103	85.7	422	–	EC50 (5HT2A receptor [1]; [11]): 20.2 nM; EC50 (5HT2A receptor [3]; [14]): 75.8 nM
Fc1cc(Cl)c2[nH]nc(C34CNCC3C4)c2c1 (centres unmarked) [Example 185, 3-(3-azabicyclo[3.1.0]hexan-1-yl)-7-chloro-5-fluoro-1H-indazole]	290	78.1	6740	542	46.1	–	–	–	–	–
N#Cc1cccc2[nH]nc(C3=CCCNC3)c12 [Example 82, 3-(1,2,5,6-tetrahydropyridin-3-yl)-1H-indazole-4-carbonitrile]	–	–	–	–	–	95.9	87.9	153	562	EC50 (5HT2A receptor [1]; [11]): 12 nM
Clc1cccc2c(C34CNCCC3C4)c[nH]c12 (centres unmarked) [Example 269, 3-(3-azabicyclo[4.1.0]heptan-1-yl)-7-chloro-1H-indole]	257	–	743	1380	–	–	–	–	–	Emax (5HT2A receptor [1]; [19]): 88.8%; Emax (5HT2A receptor [3]; [20]): 30%
Cc1cc(F)cc2c(C3=CCCN(C)C3)c[nH]c12 [Example 116, 5-fluoro-7-methyl-3-(1-methyl-1,2,5,6-tetrahydropyridin-3-yl)-1H-indole]	–	–	–	–	–	125	56.1	–	129	EC50 (5HT2A receptor [1]; [11]): 74 nM; Ki (5HT2A receptor [2]; [13]): 99.6 nM
CN1CC(c2c[nH]c3c(Cl)cccc23)C1 [Example 256, 7-chloro-3-(1-methylazetidin-3-yl)-1H-indole]	367	97.5	2010	1000	31.7	–	–	–	–	–
FC1(F)C2CNCC21c1n[nH]c2c(Cl)cccc12 (centres unmarked) [Example 199, 7-chloro-3-(6,6-difluoro-3-azabicyclo[3.1.0]hexan-1-yl)-1H-indazole]	174	87.1	3440	956	76.5	–	–	–	–	–
CN1CCC=C(c2n[nH]c3c(C#N)cccc23)C1 [Example 108, 3-(1-methyl-1,2,5,6-tetrahydropyridin-3-yl)-1H-indazole-7-carbonitrile]	–	–	–	–	–	102	72.5	1380	494	EC50 (5HT2A receptor [1]; [16]): 108 nM
Fc1ccc2c(C3=CCCNC3)c[nH]c2n1 [Example 133, 6-fluoro-3-(1,2,5,6-tetrahydropyridin-3-yl)-1H-pyrrolo[2,3-b]pyridine]	166	–	292	897	–	–	–	–	–	Emax (5HT2A receptor [1]; [19]): 77.2%; Emax (5HT2A receptor [3]; [20]): 38.1%
CN1CCC=C(c2c[nH]c3nccc(Cl)c23)C1 [Example 15, 4-chloro-3-(1-methyl-1,2,5,6-tetrahydropyridin-3-yl)-1H-pyrrolo[2,3-b]pyridine]	–	–	–	–	–	68.8	31.5	465	683	EC50 (5HT2A receptor [1]; [16]): 23.5 nM
CN1CCC=C(c2n[nH]c3ccc(F)cc23)C1 [Example 102, 5-fluoro-3-(1-methyl-1,2,5,6-tetrahydropyridin-3-yl)-1H-indazole]	–	–	–	–	–	84.5	79.8	246	129	EC50 (5HT2A receptor [1]; [11]): 9 nM
Cc1cc(F)cc2c(C34CNCC3C4)c[nH]c12 (centres unmarked) [Example 282, 3-(3-azabicyclo[3.1.0]hexan-1-yl)-5-fluoro-7-methyl-1H-indole]	165	–	257	1280	–	–	–	–	–	Emax (5HT2A receptor [1]; [19]): 96.8%; Emax (5HT2A receptor [3]; [20]): 44.8%
Clc1cccc2c(C3=CC4CCC(C3)N4)n[nH]c12 (centres unmarked) [Example 221, 3-(8-azabicyclo[3.2.1]oct-2-en-3-yl)-7-chloro-1H-indazole]	108	59.3	1400	1320	66.9	–	–	–	–	–
Cc1ccnc2[nH]cc(C3=CCCNC3)c12 [Example 9, 4-methyl-3-(1,2,5,6-tetrahydropyridin-3-yl)-1H-pyrrolo[2,3-b]pyridine]	–	–	–	–	–	74.2	72.8	8510	749	EC50 (5HT2A receptor [1]; [16]): 489 nM
Clc1[nH]c2ccccc2c1C1=CCCNC1 [Example 64, 2-chloro-3-(1,2,5,6-tetrahydropyridin-3-yl)-1H-indole]	–	–	–	–	–	91.8	60.2	186	219	EC50 (5HT2A receptor [1]; [16]): 61.9 nM
CCc1cccc2c(C3=CCCN(Cc4ccccc4)C3)c[nH]c12 [Example 69, 3-(1-benzyl-1,2,5,6-tetrahydropyridin-3-yl)-7-ethyl-1H-indole]	–	–	–	–	–	49.7	63.5	199	1740	EC50 (5HT2A receptor [1]; [16]): 98.2 nM
CN1CCC=C(c2c[nH]c3c(Cl)c(F)ccc23)C1 [Example 128, 7-chloro-6-fluoro-3-(1-methyl-1,2,5,6-tetrahydropyridin-3-yl)-1H-indole]	–	89.2	–	–	56.5	–	–	–	–	EC50 (5HT2A receptor [1]; [9]): 11.9 nM; Ki (5HT2A receptor [2]; [10]): 15.3 nM; EC50 (5HT2A receptor [3]; [21]): 66.1 nM
CN1CCC=C(c2n[nH]c3c(Cl)ccc(F)c23)C1 [Example 132, 7-chloro-4-fluoro-3-(1-methyl-1,2,5,6-tetrahydropyridin-3-yl)-1H-indazole]	–	95.4	–	–	50.9	–	–	–	–	EC50 (5HT2A receptor [1]; [9]): 24 nM; Ki (5HT2A receptor [2]; [10]): 84.6 nM; EC50 (5HT2A receptor [3]; [21]): 93 nM
Clc1cccc2c(C3=CCCNC3)n[nH]c12 [Example 89, 7-chloro-3-(1,2,5,6-tetrahydropyridin-3-yl)-1H-indazole]	–	–	–	–	–	93.7	85.1	–	–	EC50 (5HT2A receptor [1]; [11]): 11.4 nM; Ki (5HT2A receptor [2]; [13]): 85.2 nM; EC50 (5HT2A receptor [3]; [14]): 83.5 nM
CN1CCC=C(c2c[nH]c3nccc(-c4ccccc4)c23)C1 [Example 16, 3-(1-methyl-1,2,5,6-tetrahydropyridin-3-yl)-4-phenyl-1H-pyrrolo[2,3-b]pyridine]	–	–	–	–	–	–	49.6	164	2140	–
